Source: patent US20170003277A1 (priority 2015, published 2017)

Assays:
[1] = tested on: THP-1 human monocyte cell line; assay: Pathway enrichment (DAVID) in THP-1 cells, Example 9; type: cell-based; settings: genes upregulated vs mannitol, 6 hours
Experimental: Nucleic Acids Res. 37, 1-13 (2009)]. Pathway enrichment results were visualized using volcano plots, plotting −log p-values versus enrichment scores. For GA MOA, to obtain top-gene lists of appropriate size (tens-hundreds) for use with DAVID, an absolute-value fold-change cutoff of 1.5 and p-value cutoff of 1e-3 were utilized to obtain gene lists for pathway enrichment. […] DAVID runs were conducted on Sep. […] Please note that the GO databases are updated daily (as noted on the GO site:www.geneontology.org/GO.downloads.ontology.shtml) and therefore performing the same enrichments on the same genesets may yield slightly varying results depending on the rundate. Pathway p-values may change slightly between runs conducted at different times; the overall picture of enriched pathways, however, is expected to remain consistent.
Performing the same enrichments on the same genesets may yield slightly varying results depending on the run date (GO databases are updated daily: www.geneontology.org/GO.downloads.ontology.shtml).

mouse splenocytes = assay: Microarray gene expression of splenocytes from Copaxone- or Polimunol-immunized mice activated ex vivo with Copaxone or Polimunol; type: cell-based
Experimental: All experimental procedures conformed to accepted ethical standards for use of animals in research and were in accordance with Committee for the Care and Use of Experimental Animals guidelines and approved by the Teva Institutional Animal Care and Use Committee. For these experiments, 8- to 12-week-old female (Balb/c X SJL) F1 mice (Janvier, France) were purchased. Mice were kept at 21±3° C.; the relative humidity was 30-70%, the light/dark cycle was 12/12 h. Animals were maintained on a standard rodent pellet diet and sterile filtered tap water available ad libitum.
To stimulate induction of GA-reactive T cells, twelve mice were injected with 100 μL of a 2.5 mg/mL solution of GA reference standard (GA-RS) in phosphate-buffered saline (250 μg GARS per mouse). GA-RS (Teva) is a selected GA drug substance batch defined as the standard batch and used as a reference in quality control release tests of all Copaxone® batches. Another group of twelve mice were injected with 100 μL of a 2.5 mg/mL solution of Polimunol in phosphate-buffered saline (250 μg Polimunol per mouse). Polimunol is a proposed generic manufactured a company other than Teva. […] A single cell suspension was prepared. After red blood cells lysis, splenocytes from the same immunization group were pulled and resuspended to a final concentration of 10×10^6 cells/mL in defined cell culture media (DCCM1) (Biological Industries, Beit Haemek, Israel) (96.7% v/v) enriched with L-glutamine 2 mM (1% v/v), MEM Non-Essential Amino Acids 2 mM (1% v/v), sodium pyruvate 1 mM (1% v/v), antibiotic/antimycotic solution (0.2% v/v) and 2-mercaptoethanol 50 mM (0.1% v/v).
Splenocytes were treated with activator samples diluted in medium (125 μL per well of 80 μg/mL solutions, final concentration in the well: 40 μg/mL) of: i) 3 different batches of GA drug product manufactured by Teva ii) one batch of proposed generic (Polimunol). Polimunol is a product marketed as generic GA and manufactured by a company other than Teva (i.e. Synthon). […] Splenocytes (125 μL 10×10^6 SPL cell/mL suspension) were added to the activator solutions. Each activator sample was loaded in two different plates. One for the cells from mice immunized with GA and one for cells from mice immunized with proposed generic. Plates were incubated for 24 h at 37° C. Cells were collected from the wells and were centrifuged at 300 g for 5 minutes. Supernatants were aspirated and cell pellets were resuspended in RLT buffer (from RNeasy mini kit of Qiagen, Cat #74106) for cell lysis. The cell lysates were centrifuged and supernatants were collected and frozen at −70° C. Samples were sent for further processing.
For additional detail on experimental methods used in mouse studies, please refer to publications [Bakshi et al; Towfic et al]. Note that in this study, mice were immunized with either Copaxone® or Polimunol, and subsequently splenocytes were isolated and treated ex vivo with Copaxone® or Polimunol. RNA was extracted and expression profiled across the entire genome using the Affymetrix Mouse Genome 430 2 chip. Three lots of Copaxone®, and one lot of Polimunol were comparatively tested in six replicates each.
Outlier samples were identified using the R package ArrayQCMetrics and excluded from further data processing steps. A sample was considered an outlier if it failed more than half of the included tests either before or after RMA normalization. Data were RMA normalized using the Affy R package.
Correction for batch variation was performed using ComBat as described above (THP-1 methods). Date of microarray experiment was used as batch, and the combination of treatment and immunization was used as covariate.
Differentially expressed probesets were identified across conditions using linear models for microarray data (LIMMA; Smyth, G. K. (2004)), a standard R Bioconductor package. Linear models and empirical Bayes methods for assessing differential expression in microarray experiments. […]

glatiramer acetate [Copaxone®]
Fold Enrichment ([1]; GO:0001503~ossification (GOTERM BP_ALL)): 4.068 | Fold Enrichment ([1]; GO:0007204~elevation of cytosolic calcium ion concentration (GOTERM BP_ALL)): 4.773 | Fold Enrichment ([1]; GO:0010557~positive regulation of macromolecule biosynthetic process (GOTERM BP_ALL)): 1.871 | Fold Enrichment ([1]; GO:0010628~positive regulation of gene expression (GOTERM BP_ALL)): 1.936 | Fold Enrichment ([1]; GO:0051241~negative regulation of multicellular organismal process (GOTERM BP_ALL)): 3.649 | Foxp3 expression (mouse splenocytes; Copaxone immunization, adj p<3.4e-23): upregulated | Gpr83 expression (mouse splenocytes; Copaxone immunization, two probesets, adj p<4.2e-33 and 9.0e-31): upregulated | Probesets downregulated by Copaxone relative to medium (mouse splenocytes; Copaxone-immunized mice): 8,305 | Probesets downregulated by Copaxone relative to medium, |FC|≧2 (mouse splenocytes; Copaxone-immunized mice): 485 | Probesets significantly modulated by Copaxone relative to medium (mouse splenocytes; Copaxone-immunized mice): 16,647 | Probesets upregulated by Copaxone relative to medium (mouse splenocytes; Copaxone-immunized mice): 8,342 | Probesets upregulated by Copaxone relative to medium, |FC|≧2 (mouse splenocytes; Copaxone-immunized mice): 411
